19 compounds from patent US9902722B2, “Biaryl kinase inhibitors” (BRISTOL-MYERS SQUIBB COMPANY, priority 2014, dated 2018) can be followed below.

Each structure is given as a SMILES string.

Sequence of GST-Xa-hAAK1 (Q2M2I8 whole entry): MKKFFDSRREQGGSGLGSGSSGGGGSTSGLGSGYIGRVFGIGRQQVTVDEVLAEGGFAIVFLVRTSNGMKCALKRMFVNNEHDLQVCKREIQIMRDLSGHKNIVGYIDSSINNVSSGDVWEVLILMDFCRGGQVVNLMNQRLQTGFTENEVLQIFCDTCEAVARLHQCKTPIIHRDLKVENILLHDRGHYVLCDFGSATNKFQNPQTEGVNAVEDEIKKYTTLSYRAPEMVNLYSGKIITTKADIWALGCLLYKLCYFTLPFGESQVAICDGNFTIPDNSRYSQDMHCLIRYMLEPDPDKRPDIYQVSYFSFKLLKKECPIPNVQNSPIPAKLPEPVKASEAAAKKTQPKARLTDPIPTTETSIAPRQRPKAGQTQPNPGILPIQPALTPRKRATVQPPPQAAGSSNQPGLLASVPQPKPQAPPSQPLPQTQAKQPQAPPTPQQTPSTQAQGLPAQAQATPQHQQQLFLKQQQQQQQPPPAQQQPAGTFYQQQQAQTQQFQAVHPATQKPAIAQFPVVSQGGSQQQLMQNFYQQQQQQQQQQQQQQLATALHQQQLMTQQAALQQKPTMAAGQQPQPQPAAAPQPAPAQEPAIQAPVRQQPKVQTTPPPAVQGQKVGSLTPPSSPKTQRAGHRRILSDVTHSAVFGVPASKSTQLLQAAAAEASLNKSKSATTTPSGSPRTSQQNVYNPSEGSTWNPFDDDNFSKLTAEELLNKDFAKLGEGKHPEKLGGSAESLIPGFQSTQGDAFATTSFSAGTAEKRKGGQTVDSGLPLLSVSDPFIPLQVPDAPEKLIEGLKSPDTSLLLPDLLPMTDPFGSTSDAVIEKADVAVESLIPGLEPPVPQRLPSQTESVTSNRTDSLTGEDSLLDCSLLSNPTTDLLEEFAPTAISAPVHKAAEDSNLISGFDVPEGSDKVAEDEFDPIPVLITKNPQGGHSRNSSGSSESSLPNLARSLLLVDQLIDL

This experiment concerns the target GST-Xa-hAAK1 (Homo sapiens (Human), UniProt Q2M2I8). In words: AAK1 Kinase Assay.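 Also: each compound tested across an eleven-point concentration series, with IC50 obtained through non-linear regression fitting.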 Particulars: bacterially expressed GST-Xa-hAAK1 3.5 nM; ATP 22 μM; peptide substrate 1.5 μM; 3 hours at room temperature; Caliper LabChip 3000. It counts as biochemical.
Experimental: The assays were performed in U-bottom 384-well plates. […] The reactions were initiated by the combination of bacterially expressed, GST-Xa-hAAK1 with substrates and test compounds. The reactions were incubated at room temperature for 3 hours and terminated by adding 60 μl of 35 mM EDTA buffer to each sample. […] Compounds were dissolved at 10 mM in dimethylsulfoxide (DMSO) and evaluated at eleven concentrations. IC50 values were derived by non-linear regression analysis.
In the case of `CC(C)C[C@](C)(N)COc1cnc(-c2ccnc3ccccc23)cc1C(F)(F)F` [Example 145, (S)-2,4-dimethyl-1-((6-(quinolin-4-yl)-4-(trifluoromethyl)pyridin-3-yl)oxy)pentan-2-amine], the IC50 (in general, the concentration that gives 50% inhibition) worked out at 0.24 nM. In other words, the sub-nanomolar range. For `CC(C)C[C@](C)(O)COc1cnc(-c2ccnc3ccccc23)cc1C(F)F` [Example 176, (S)-1-((4-(difluoromethyl)-6-(quinolin-4-yl)pyridin-3-yl)oxy)-2,4-dimethylpentan-2-ol] the value was 53 nM; for `CC(C)C[C@](C)(N)COc1ccc(-c2ccnc3ccccc23)cc1C1CC1` [Example 74, (S)-1-(2-cyclopropyl-4-(quinolin-4-yl)phenoxy)-2,4-dimethylpentan-2-amine], 0.07 nM. With `CC(=O)Nc1cc(-c2ccc(OC[C@@](C)(N)CC(C)C)c(F)c2)ccn1` [Example 27, (S)—N-(4-(4-((2-amino-2,4-dimethylpentyl)oxy)-3-fluorophenyl)pyridin-2-yl)acetamide] the figure was 1 nM; with `COC(=O)Nc1cc(-c2ccc(OC[C@@](C)(N)CC(C)C)c(OC(F)(F)F)c2)ccn1` [Example 26, (S)-methyl (4-(4-((2-amino-2,4-dimethylpentyl)oxy)-3-(trifluoromethoxy)phenyl)pyridin-2-yl)carbamate], 0.69 nM; with `COc1cc(-c2ccnc(NC(C)=O)c2)ccc1OC[C@@H](N)CC(C)C` [Example 2, (S)—N-(4-(4-((2-amino-4-methylpentyl)oxy)-3-methoxyphenyl)pyridin-2-yl)acetamide], 3 nM. On to `CC(C)C[C@](C)(N)COc1ccc(-c2ccnc3ccncc23)cc1C#N` [Example 86, (S)-2-((2-amino-2,4-dimethylpentyl)oxy)-5-(1,6-naphthyridin-4-yl)benzonitrile], for which the IC50 was found to be 1.2 nM.

`COC(=O)Nc1cc(-c2ccc(OC[C@@](C)(N)CC(C)C)c(C#N)c2)c(F)cn1` [Example 106, (S)-methyl (4-(4-((2-amino-2,4-dimethylpentyl)oxy)-3-cyanophenyl)-5-fluoropyridin-2-yl)carbamate] came in with an IC50 of 0.62 nM. Compared with the last compound, the IC50 is about 1.9-fold lower.

For `CC(C)CC(C)(N)COc1c(F)cc(-c2ccnc3ccccc23)cc1Cl` (stereo not shown) [Example 75, 1-(2-chloro-6-fluoro-4-(quinolin-4-yl)phenoxy)-2,4-dimethylpentan-2-amine], the IC50 was 34 nM. Compared with the last compound, the IC50 is about 55-fold higher. With `CC(C)C[C@](C)(N)COc1ccc(-c2ccnc3ccc(F)cc23)cc1C(F)F` [Example 116, (S)-1-(2-(difluoromethyl)-4-(6-fluoroquinolin-4-yl)phenoxy)-2,4-dimethylpentan-2-amine] the figure was 0.93 nM.

Compound `CC(C)C[C@](C)(N)COc1ccc(-c2ccnc3ccncc23)cc1C(F)(F)F` [Example 85, (S)-1-(4-(1,6-naphthyridin-4-yl)-2-(trifluoromethyl)phenoxy)-2,4-dimethylpentan-2-amine] came in with an IC50 of 0.32 nM. Regarding `CC(C)C[C@@](C)(N)COc1ccc(-c2ccnc(C(F)F)c2)nc1C(F)F` [Example 174, (R)-1-((2′,6-bis(difluoromethyl)-[2,4′-bipyridin]-5-yl)oxy)-2,4-dimethylpentan-2-amine], half-maximal inhibition (IC50) was put at 54 nM. For `CC(C)C[C@](C)(N)COc1ncc(-c2ccnc3cc(F)cc(F)c23)cc1C#N` [Example 77, (S)-2-((2-amino-2,4-dimethylpentyl)oxy)-5-(5,7-difluoroquinolin-4-yl)nicotinonitrile] the value was 0.92 nM. Compound `CC(C)C[C@@](C)(N)COc1ncc(-c2ccnc3ccccc23)cc1C(F)F` [Example 246, (R)-1-((3-(difluoromethyl)-5-(quinolin-4-yl)pyridin-2-yl)oxy)-2,4-dimethylpentan-2-amine] yielded an IC50 of 26 nM.

`CC(C)C[C@](C)(N)COc1ccc(-c2ccnc(C(F)F)c2)cc1C(F)(F)F` [Example 35, (S)-1-(4-(2-(difluoromethyl)pyridin-4-yl)-2-(trifluoromethyl)phenoxy)-2,4-dimethylpentan-2-amine] displayed an IC50 of 0.77 nM. With `CC(C)C[C@](C)(N)COc1ncc(-c2ccnc3ccccc23)cc1C(F)(F)F` [Example 219, (S)-2,4-dimethyl-1-((5-(quinolin-4-yl)-3-(trifluoromethyl)pyridin-2-yl)oxy)pentan-2-amine] the figure was 0.59 nM; with `Cc1c(-c2ccc(OC[C@@](C)(N)CC(C)C)c(C(F)(F)F)c2)ccnc1F` [Example 41, (S)-1-(4-(2-fluoro-3-methylpyridin-4-yl)-2-(trifluoromethyl)phenoxy)-2,4-dimethylpentan-2-amine], 3.8 nM. In turn, `CC(C)C[C@](C)(N)COc1cnc(-c2ccnc3cc(F)cc(F)c23)cc1Cl` [Example 233, (S)-1-((4-chloro-6-(5,7-difluoroquinolin-4-yl)pyridin-3-yl)oxy)-2,4-dimethylpentan-2-amine] showed an IC50 of 0.73 nM. This IC50 lies about 5.2-fold lower than the previous one. With `CC(C)C[C@](C)(N)COc1cnc(-c2ccnc3ccc(OC(F)(F)F)cc23)cc1C(F)F` [Example 134, (S)-1-((4-(difluoromethyl)-6-(6-(trifluoromethoxy)quinolin-4-yl)pyridin-3-yl)oxy)-2,4-dimethylpentan-2-amine] the figure was 4.4 nM.
